This note sets out measurements from PubChem BioAssay (NCI).

Structures are written as SMILES.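 These data come from cells grown in 96-well plates and exposed to compound for 48 hours at five concentrations. TGI is the concentration that stops growth completely.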

The subject of one experiment is SK-OV-3 ovarian. Description: NCI tumour cell line growth inhibition, 48 h.
Consider `COc1ccc(CCN=C2OCc3ccccc32)cc1OC`, for which the TGI was > 100 µM.

As to `CC(C)(C)c1cc(C(CO)OCCOCCO)cc(C(C)(C)C)c1O` (stereo not drawn), the TGI was > 100 µM.

`Cc1ccc(NC(=S)NNC(=O)c2cc(-c3ccccc3)nc3ccccc23)cc1`: the TGI was found to be 30.3 µM.

`O=C(CCc1cc(O)cc(O)c1)NCCc1cc(O)cc(O)c1`: the TGI is > 100 µM.

Consider `CCCCCC(/C=C/C1CCC(=O)C1CC#C[Si](C)(C)C)OCc1ccccc1` (stereo not drawn), for which the TGI was > 100 µM.

Take `COC(=O)C1C=CN(N(C)C)C2=C1C(=O)c1c(O)cccc1C2=O` (stereo not drawn): the TGI worked out at 22.7 µM.

A further experiment relates to DU-145 prostate. In words: NCI tumour cell line growth inhibition, 48 h.
As for `COc1ccc(CN(Cc2ccc(OC)cc2)C(=O)CC2(O)C=CCC2)cc1` (stereo not drawn), the TGI is > 100 µM.

`O=C(NC(CO)Cc1ccc(Oc2cc(CC(CO)NC(=O)OCc3ccccc3)ccc2OC(=O)OCc2ccccc2)cc1)OCc1ccccc1` (stereo not drawn) displayed a TGI of 51.3 µM.

As to `N#C/C(N)=C(\C#N)NC=NCc1ccccc1`, the TGI was > 100 µM.

Turning to `COc1ccc(/C=N/n2c(-c3ccccc3)n[nH]c2=O)cc1`, the TGI was > 100 µM.

`CCc1nc2ccc(N=NN(C)C)cc2[nH]1`: the TGI is > 100 µM.

As for `CN(CCN(C)C(=S)NN)C(=S)NN`, the TGI is > 100 µM.

As to `COc1ccc(CCN=C2OCc3ccccc32)cc1OC`, the TGI is > 100 µM.

`CC(C)(C)c1cc(C(CO)OCCOCCO)cc(C(C)(C)C)c1O` (stereo not drawn): the TGI was > 100 µM.

For the compound `Cc1ccc(NC(=S)NNC(=O)c2cc(-c3ccccc3)nc3ccccc23)cc1`, the TGI is 26.1 µM.

For `O=C(CCc1cc(O)cc(O)c1)NCCc1cc(O)cc(O)c1`, the TGI was > 100 µM.

As to `CCCCCC(/C=C/C1CCC(=O)C1CC#C[Si](C)(C)C)OCc1ccccc1` (stereo not drawn), the TGI is > 87.5 µM.

As to `COC(=O)C1C=CN(N(C)C)C2=C1C(=O)c1c(O)cccc1C2=O` (stereo not drawn), the TGI amounted to 2.96 µM.

The test system of another experiment is A549 NSCLC. In words: NCI tumour cell line growth inhibition, 48 h.
Consider `COc1ccc(CN(Cc2ccc(OC)cc2)C(=O)CC2(O)C=CCC2)cc1` (stereo not drawn), for which the TGI is > 100 µM.

For `O=C(NC(CO)Cc1ccc(Oc2cc(CC(CO)NC(=O)OCc3ccccc3)ccc2OC(=O)OCc2ccccc2)cc1)OCc1ccccc1` (stereo not drawn), the TGI is > 100 µM.

On to `N#C/C(N)=C(\C#N)NC=NCc1ccccc1`, for which the TGI was > 100 µM.

Turning to `COc1ccc(/C=N/n2c(-c3ccccc3)n[nH]c2=O)cc1`, the TGI is > 100 µM.

Take `CCc1nc2ccc(N=NN(C)C)cc2[nH]1`: the TGI is > 100 µM.

For `CN(CCN(C)C(=S)NN)C(=S)NN`, the TGI was > 100 µM.

With `COc1ccc(CCN=C2OCc3ccccc32)cc1OC`, the TGI is > 100 µM.

As to `CC(C)(C)c1cc(C(CO)OCCOCCO)cc(C(C)(C)C)c1O` (stereo not drawn), the TGI is > 100 µM.

`Cc1ccc(NC(=S)NNC(=O)c2cc(-c3ccccc3)nc3ccccc23)cc1` registered a TGI of 26.2 µM.

In the case of `O=C(CCc1cc(O)cc(O)c1)NCCc1cc(O)cc(O)c1`, the TGI was > 100 µM.

`CCCCCC(/C=C/C1CCC(=O)C1CC#C[Si](C)(C)C)OCc1ccccc1` (stereo not drawn) displayed a TGI of 70.7 µM.

In turn, `COC(=O)C1C=CN(N(C)C)C2=C1C(=O)c1c(O)cccc1C2=O` (stereo not drawn) came in with a TGI of 6.44 µM.

For another experiment, the system named is BT-549 breast. Description: NCI tumour cell line growth inhibition, 48 h.
As to `COc1ccc(CN(Cc2ccc(OC)cc2)C(=O)CC2(O)C=CCC2)cc1` (stereo not drawn), the TGI is > 100 µM.

In the case of `O=C(NC(CO)Cc1ccc(Oc2cc(CC(CO)NC(=O)OCc3ccccc3)ccc2OC(=O)OCc2ccccc2)cc1)OCc1ccccc1` (stereo not drawn), the TGI turned out to be 38.7 µM.

Turning to `N#C/C(N)=C(\C#N)NC=NCc1ccccc1`, the TGI was > 100 µM.

For `COc1ccc(/C=N/n2c(-c3ccccc3)n[nH]c2=O)cc1`, the TGI was > 100 µM.

For the compound `CCc1nc2ccc(N=NN(C)C)cc2[nH]1`, the TGI was > 100 µM.

For `CN(CCN(C)C(=S)NN)C(=S)NN`, the TGI is > 100 µM.

Regarding `COc1ccc(CCN=C2OCc3ccccc32)cc1OC`, the TGI is > 100 µM.

In the case of `CC(C)(C)c1cc(C(CO)OCCOCCO)cc(C(C)(C)C)c1O` (stereo not drawn), the TGI was > 100 µM.

In turn, `Cc1ccc(NC(=S)NNC(=O)c2cc(-c3ccccc3)nc3ccccc23)cc1` showed a TGI of 32.7 µM.

For the compound `O=C(CCc1cc(O)cc(O)c1)NCCc1cc(O)cc(O)c1`, the TGI was > 100 µM.

As to `CCCCCC(/C=C/C1CCC(=O)C1CC#C[Si](C)(C)C)OCc1ccccc1` (stereo not drawn), the TGI stood at 33.8 µM.

`COC(=O)C1C=CN(N(C)C)C2=C1C(=O)c1c(O)cccc1C2=O` (stereo not drawn) registered a TGI of 3.86 µM.

A further experiment deals with IGROV1 ovarian. Description: NCI tumour cell line growth inhibition, 48 h.
As for `COc1ccc(CN(Cc2ccc(OC)cc2)C(=O)CC2(O)C=CCC2)cc1` (stereo not drawn), the TGI is > 100 µM.

Compound `O=C(NC(CO)Cc1ccc(Oc2cc(CC(CO)NC(=O)OCc3ccccc3)ccc2OC(=O)OCc2ccccc2)cc1)OCc1ccccc1` (stereo not drawn) showed a TGI of 46.6 µM.

Consider `N#C/C(N)=C(\C#N)NC=NCc1ccccc1`, for which the TGI is > 100 µM.

In the case of `CCc1nc2ccc(N=NN(C)C)cc2[nH]1`, the TGI is > 100 µM.

`CN(CCN(C)C(=S)NN)C(=S)NN`: the TGI was > 100 µM.

`COc1ccc(CCN=C2OCc3ccccc32)cc1OC`: the TGI is > 100 µM.

For the compound `CC(C)(C)c1cc(C(CO)OCCOCCO)cc(C(C)(C)C)c1O` (stereo not drawn), the TGI was > 100 µM.

Compound `Cc1ccc(NC(=S)NNC(=O)c2cc(-c3ccccc3)nc3ccccc23)cc1` yielded a TGI of 36.7 µM.

For the compound `O=C(CCc1cc(O)cc(O)c1)NCCc1cc(O)cc(O)c1`, the TGI is > 100 µM.

Turning to `CCCCCC(/C=C/C1CCC(=O)C1CC#C[Si](C)(C)C)OCc1ccccc1` (stereo not drawn), the TGI worked out at 28.7 µM.

In the case of `COC(=O)C1C=CN(N(C)C)C2=C1C(=O)c1c(O)cccc1C2=O` (stereo not drawn), the TGI was 5.63 µM.
